Source: US20250353864A1, “INDAZOLE CONTAINING MACROCYCLES AND THEIR USE” (BLOSSOMHILL THERAPEUTICS, INC., priority 2022, published 2025)

Columns and labels:
Format in all cases: biochemical
[1] = biological target: EGFR WT (Homo sapiens (Human), UniProt P00533); assay: HotSpot radiometric kinase assay (Reaction Biology), EGFR WT; settings: 10 μM ATP
Method in brief: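 IC50 values derive from curve fits of 33P incorporation measured by P81 filter binding. ATP was 10 μM final; incubation lasted 120 min at room temperature after ~20 min compound preincubation.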

[2] = biological target: EGFR (D770_N771insNPG) (Homo sapiens (Human), UniProt P00533, INS770NPG); assay: HotSpot radiometric kinase assay, EGFR (D770_N771insNPG); settings: 10 μM ATP, read-out: EGFR (Δ770_N771insNPG) IC50
Sequence of EGFR (D770_N771insNPG) (P00533 other isoform, or with tags, fused parts or gaps del 1-668/ins NPG behind 770 limits assumed): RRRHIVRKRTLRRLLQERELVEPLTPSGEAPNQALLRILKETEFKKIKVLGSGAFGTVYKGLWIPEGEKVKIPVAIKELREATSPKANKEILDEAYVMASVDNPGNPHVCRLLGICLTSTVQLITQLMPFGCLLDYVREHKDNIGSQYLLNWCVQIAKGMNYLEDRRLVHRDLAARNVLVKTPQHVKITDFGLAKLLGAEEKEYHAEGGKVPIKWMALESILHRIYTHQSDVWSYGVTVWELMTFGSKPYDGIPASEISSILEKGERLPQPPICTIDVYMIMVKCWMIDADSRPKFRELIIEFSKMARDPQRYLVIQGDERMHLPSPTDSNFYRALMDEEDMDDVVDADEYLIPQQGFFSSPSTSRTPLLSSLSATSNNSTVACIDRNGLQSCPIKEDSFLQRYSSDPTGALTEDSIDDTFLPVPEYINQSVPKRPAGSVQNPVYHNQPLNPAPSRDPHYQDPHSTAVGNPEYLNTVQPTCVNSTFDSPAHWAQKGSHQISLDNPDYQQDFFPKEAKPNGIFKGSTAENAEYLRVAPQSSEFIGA
Method in brief: (§1)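 Radiometric filter-binding assay with EGFR mutant kinase/substrate pairs in 20 mM Hepes pH 7.5 with Mg, EGTA, Brij35, BSA, Na3VO4, DTT, 1% DMSO. Compound preincubated ~20 min, then ATP/^33P-ATP added at 10 μM final. Reaction 120 min at room temperature, spotted on P81 paper; IC50 from curve fits.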

[3] = biological target: EGFR Δ746-750 mutant (Homo sapiens (Human), UniProt P00533, DEL746-750); assay: HotSpot radiometric kinase assay, EGFR Δ746-750 mutant; settings: 10 μM ATP
Method in brief: as §1

[4] = biological target: EGFR Δ746-750/C797S mutant (Homo sapiens (Human), UniProt P00533, C797S/DEL746-750); assay: HotSpot radiometric kinase assay, EGFR Δ746-750/C797S mutant; settings: 10 μM ATP
Sequence of EGFR Δ746-750/C797S mutant (P00533 other isoform, or with tags, fused parts or gaps C797S/del 1-668/del 746-750 limits assumed): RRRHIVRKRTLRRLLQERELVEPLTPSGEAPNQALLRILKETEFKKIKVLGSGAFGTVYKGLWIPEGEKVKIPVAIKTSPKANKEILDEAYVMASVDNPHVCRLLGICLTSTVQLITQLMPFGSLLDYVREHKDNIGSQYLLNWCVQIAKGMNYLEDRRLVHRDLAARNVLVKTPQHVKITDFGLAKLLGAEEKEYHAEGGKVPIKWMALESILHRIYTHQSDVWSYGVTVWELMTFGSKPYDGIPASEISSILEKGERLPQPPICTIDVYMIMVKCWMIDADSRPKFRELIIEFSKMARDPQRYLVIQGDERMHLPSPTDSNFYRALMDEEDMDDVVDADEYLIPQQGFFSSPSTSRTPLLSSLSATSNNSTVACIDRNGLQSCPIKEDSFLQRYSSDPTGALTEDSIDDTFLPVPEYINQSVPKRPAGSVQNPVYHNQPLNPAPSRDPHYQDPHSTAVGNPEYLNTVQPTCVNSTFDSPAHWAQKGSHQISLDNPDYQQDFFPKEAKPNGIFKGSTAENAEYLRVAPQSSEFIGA
Method in brief: as §1

[5] = biological target: EGFR L858R mutant (Homo sapiens (Human), UniProt P00533, L858R); assay: HotSpot radiometric kinase assay, EGFR L858R mutant; settings: 10 μM ATP
Method in brief: as §1

[6] = biological target: EGFR L858R/T790M mutant (Homo sapiens (Human), UniProt P00533, L858R/T790M); assay: HotSpot radiometric kinase assay, EGFR L858R/T790M mutant; settings: 10 μM ATP
Sequence of EGFR L858R/T790M mutant (P00533 25-1210 T790M/L858R): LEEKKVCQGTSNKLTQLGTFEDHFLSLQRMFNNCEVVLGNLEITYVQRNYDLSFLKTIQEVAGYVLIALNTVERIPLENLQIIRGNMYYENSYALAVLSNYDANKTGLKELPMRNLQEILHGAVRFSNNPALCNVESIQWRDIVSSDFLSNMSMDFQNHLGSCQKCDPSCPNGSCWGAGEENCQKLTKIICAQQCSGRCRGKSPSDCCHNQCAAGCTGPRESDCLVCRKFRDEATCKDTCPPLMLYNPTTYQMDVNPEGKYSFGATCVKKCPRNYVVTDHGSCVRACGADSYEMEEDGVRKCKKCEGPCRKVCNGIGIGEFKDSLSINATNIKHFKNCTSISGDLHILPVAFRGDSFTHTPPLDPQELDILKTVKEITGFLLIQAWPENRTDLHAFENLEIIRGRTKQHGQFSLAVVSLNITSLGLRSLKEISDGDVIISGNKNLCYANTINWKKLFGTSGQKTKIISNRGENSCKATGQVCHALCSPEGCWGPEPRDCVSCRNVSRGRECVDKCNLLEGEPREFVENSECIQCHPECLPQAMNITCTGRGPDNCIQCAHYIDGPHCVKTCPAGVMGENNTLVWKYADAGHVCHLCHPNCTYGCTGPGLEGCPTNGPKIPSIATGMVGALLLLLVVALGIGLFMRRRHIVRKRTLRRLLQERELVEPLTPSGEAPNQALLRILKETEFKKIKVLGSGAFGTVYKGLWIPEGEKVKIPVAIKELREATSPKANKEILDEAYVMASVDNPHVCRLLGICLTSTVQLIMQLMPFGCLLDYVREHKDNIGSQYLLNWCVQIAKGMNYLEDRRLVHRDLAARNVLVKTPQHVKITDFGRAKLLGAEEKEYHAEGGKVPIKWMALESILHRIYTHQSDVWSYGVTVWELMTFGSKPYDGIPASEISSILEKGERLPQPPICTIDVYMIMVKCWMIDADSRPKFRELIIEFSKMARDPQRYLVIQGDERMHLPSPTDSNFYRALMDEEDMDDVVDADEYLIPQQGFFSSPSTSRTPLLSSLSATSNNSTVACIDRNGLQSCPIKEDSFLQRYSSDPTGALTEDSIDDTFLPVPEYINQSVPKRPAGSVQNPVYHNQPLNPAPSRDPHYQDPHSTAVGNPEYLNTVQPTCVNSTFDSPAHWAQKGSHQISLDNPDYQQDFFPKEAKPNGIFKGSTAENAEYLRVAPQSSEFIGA
Method in brief: as §1

[7] = biological target: EGFR L858R/T790M/C797S mutant (Homo sapiens (Human), UniProt P00533, C797S/L858R/T790M); assay: HotSpot radiometric kinase assay, EGFR L858R/T790M/C797S mutant; settings: 10 μM ATP
Method in brief: as §1

[8] = biological target: ALK (Homo sapiens (Human), UniProt Q9UM73); assay: HotSpot radiometric kinase assay, inhibition of ALK kinase activity; settings: 10 μM ATP
Description: Briefly, specific kinase/substrate pairs along with required cofactors were prepared in reaction buffer; 20 mM Hepes pH 7.5, 10 mM […], 1 mM EGTA, 0.02% Brij35, 0.02 mg/ml BSA, 0.1 mM Na3VO4, 2 mM DTT, 1% DMSO. Compounds were delivered into the reaction, followed […] later by addition of a mixture of ATP (Sigma, St. Louis MO) and ^33P ATP (Perkin Elmer, Waltham MA) to a final concentration of 10 μM. Reactions were carried out at room temperature for 120 min, followed by spotting of the reactions onto P81 ion exchange filter paper (Whatman Inc., Piscataway, NJ). Unbound phosphate was removed by extensive washing of filters in 0.75% phosphoric acid. […] IC50 values and curve fits were obtained using Prism (GraphPad Software).

[9] = biological target: CLK1 (Homo sapiens (Human), UniProt P49759); assay: Inhibition of CLK1 kinase activity evaluated at Nanosyn (ADP-Glo); settings: ADP-Glo luminescence
Sequence of CLK1 (P49759 whole entry, canonical isoform): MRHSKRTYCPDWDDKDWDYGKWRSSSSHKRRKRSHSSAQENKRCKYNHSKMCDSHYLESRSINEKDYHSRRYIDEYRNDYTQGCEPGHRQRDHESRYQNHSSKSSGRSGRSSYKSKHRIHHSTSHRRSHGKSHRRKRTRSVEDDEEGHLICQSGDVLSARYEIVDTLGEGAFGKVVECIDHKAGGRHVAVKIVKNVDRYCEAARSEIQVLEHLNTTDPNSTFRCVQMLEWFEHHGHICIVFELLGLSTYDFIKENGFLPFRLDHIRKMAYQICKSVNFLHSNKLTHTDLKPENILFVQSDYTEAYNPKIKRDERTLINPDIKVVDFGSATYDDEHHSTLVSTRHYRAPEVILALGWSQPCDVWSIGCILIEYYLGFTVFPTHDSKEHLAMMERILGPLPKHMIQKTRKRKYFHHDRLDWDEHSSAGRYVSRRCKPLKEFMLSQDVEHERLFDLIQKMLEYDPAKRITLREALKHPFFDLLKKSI
Method in brief: (§2)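 ADP-Glo luminescence (40 min depletion, 10 min detection) quantifies ADP from ATP-initiated phosphorylation of substrate by each CLK isoform in HEPES pH 7.5 buffer, 1% DMSO, assay-specific incubation. %-inhibition calculated against uninhibited and enzyme-free controls.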

[10] = biological target: CLK2 (Homo sapiens (Human), UniProt P49760); assay: Inhibition of CLK2 kinase activity evaluated at Nanosyn (ADP-Glo); settings: ADP-Glo luminescence
Method in brief: as §2

[11] = biological target: CLK3 (Homo sapiens (Human), UniProt P49761); assay: Inhibition of CLK3 kinase activity evaluated at Nanosyn (ADP-Glo); settings: ADP-Glo luminescence
Sequence of CLK3 (P49761 whole entry): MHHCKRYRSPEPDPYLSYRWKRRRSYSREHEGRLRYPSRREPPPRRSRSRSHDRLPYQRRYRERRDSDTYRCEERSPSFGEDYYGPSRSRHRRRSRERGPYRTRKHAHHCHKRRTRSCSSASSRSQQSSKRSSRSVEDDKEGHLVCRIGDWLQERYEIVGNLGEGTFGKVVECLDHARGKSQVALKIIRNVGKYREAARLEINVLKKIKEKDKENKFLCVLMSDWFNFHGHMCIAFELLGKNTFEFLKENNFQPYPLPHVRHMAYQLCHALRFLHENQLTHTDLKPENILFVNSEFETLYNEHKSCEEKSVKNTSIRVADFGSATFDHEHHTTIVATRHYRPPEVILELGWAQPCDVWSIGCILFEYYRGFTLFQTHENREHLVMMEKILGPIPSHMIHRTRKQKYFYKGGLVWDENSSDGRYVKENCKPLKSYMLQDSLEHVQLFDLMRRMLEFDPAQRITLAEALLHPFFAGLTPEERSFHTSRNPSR
Method in brief: as §2

[12] = biological target: CLK4 (Homo sapiens (Human), UniProt Q9HAZ1); assay: Inhibition of CLK4 kinase activity evaluated at Nanosyn (ADP-Glo); settings: ADP-Glo luminescence
Sequence of CLK4 (Q9HAZ1 whole entry): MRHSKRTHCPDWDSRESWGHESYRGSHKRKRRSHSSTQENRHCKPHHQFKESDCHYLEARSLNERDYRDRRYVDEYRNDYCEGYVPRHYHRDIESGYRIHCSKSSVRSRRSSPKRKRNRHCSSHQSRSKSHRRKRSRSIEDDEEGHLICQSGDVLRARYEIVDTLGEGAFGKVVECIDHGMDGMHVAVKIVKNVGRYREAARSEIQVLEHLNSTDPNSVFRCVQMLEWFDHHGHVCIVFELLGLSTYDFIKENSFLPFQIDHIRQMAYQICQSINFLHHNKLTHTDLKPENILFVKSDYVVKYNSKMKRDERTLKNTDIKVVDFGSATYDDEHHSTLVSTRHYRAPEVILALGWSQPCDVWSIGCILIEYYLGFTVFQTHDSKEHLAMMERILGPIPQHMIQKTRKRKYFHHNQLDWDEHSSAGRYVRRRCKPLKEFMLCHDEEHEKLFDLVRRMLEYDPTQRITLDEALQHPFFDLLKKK
Method in brief: as §2

Sequence of EGFR WT (P00533 25-1210): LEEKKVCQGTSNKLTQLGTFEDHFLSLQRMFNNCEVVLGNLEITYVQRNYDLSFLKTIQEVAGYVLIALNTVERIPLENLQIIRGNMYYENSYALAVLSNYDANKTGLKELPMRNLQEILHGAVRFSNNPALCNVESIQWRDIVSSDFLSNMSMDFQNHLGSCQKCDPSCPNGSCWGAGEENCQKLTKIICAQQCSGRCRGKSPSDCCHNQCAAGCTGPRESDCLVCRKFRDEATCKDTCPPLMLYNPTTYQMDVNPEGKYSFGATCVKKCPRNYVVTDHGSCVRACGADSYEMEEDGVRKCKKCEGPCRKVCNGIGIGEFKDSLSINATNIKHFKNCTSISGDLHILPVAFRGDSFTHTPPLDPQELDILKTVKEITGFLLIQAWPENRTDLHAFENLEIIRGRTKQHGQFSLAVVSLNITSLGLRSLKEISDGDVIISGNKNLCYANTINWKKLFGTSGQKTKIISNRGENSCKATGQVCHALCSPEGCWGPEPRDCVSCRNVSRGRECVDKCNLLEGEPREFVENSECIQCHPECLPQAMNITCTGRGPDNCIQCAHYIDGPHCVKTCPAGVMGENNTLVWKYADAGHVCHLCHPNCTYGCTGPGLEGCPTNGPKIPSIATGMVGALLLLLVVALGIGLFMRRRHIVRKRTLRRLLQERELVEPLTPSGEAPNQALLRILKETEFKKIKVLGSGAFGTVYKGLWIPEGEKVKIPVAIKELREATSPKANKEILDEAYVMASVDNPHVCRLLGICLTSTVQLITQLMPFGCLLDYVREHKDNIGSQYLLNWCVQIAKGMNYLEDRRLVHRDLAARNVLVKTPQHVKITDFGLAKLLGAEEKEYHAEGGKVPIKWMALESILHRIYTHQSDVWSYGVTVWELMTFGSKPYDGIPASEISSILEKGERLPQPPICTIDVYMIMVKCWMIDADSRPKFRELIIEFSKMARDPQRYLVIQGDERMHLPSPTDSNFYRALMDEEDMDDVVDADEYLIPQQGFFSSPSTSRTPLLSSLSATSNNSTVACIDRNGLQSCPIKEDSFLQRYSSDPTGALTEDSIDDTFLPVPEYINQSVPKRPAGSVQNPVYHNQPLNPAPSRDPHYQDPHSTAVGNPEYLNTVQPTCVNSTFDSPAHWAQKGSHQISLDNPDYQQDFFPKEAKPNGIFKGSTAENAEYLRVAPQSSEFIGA

Row | IC50 [1] [nM] | IC50 [2] [nM] | IC50 [3] [nM] | IC50 [4] [nM] | IC50 [5] [nM] | IC50 [6] [nM] | IC50 [7] [nM] | IC50 [8] [nM] | IC50 [9] [nM] | IC50 [10] [nM] | IC50 [11] [nM] | IC50 [12] [nM] | SMILES
1 | 0.41 | 1.39 | 0.08 | 0.55 | 0.22 | 0.13 | 0.11 | 0.9 | 0.77 | 0.45 | 42 | 1.49 | CCN1Cc2c(c(OC(C)C)nn2CC(N)=O)/C=C/c2n[nH]c3ccc(cc23)-c2cnn(C)c2O[C@@H](C)C1 [Example 232, 2-{(10S,17E)-12-ethyl-8,10-dimethyl-16-[(propan-2-yl)oxy]-2,8,10,11,12,13-hexahydro-14H-3,5-ethenotripyrazolo[3,4-f:3′,4′-j:4″,3″-n][1,4]oxazacyclopentadecin-14-yl}acetamide]
2 | 160 | 116 | 27 | 14.1 | 34.7 | 1.54 | 0.74 | 3.72 | 0.14 | 0.07 | 1000 | 0.38 | C[C@H]1CN(C)Cc2c(c(C#N)nn2C)/C=C/c2n[nH]c3ccc(cc23)-c2cnn(C)c2O1 [Example 159, (10S,17E)-8,10,12,14-tetramethyl-2,10,11,12,13,14-hexahydro-8H-3,5-ethenotripyrazolo[3,4-f:3′,4′-j:4″,3″-n][1,4]oxazacyclopentadecine-16-carbonitrile]
3 | 49.2 | 222 | 11.1 | 7.29 | 9.29 |  | 1.57 | 4.79 | 0.2 | 0.38 | 160 | 0.53 | Cc1c2c(nn1C)CN(C)C[C@H](C)Oc1c(cnn1C)-c1ccc3[nH]nc(c3c1)/C=C/2 [Example 58, (10S,17E)-8,10,12,15,16-pentamethyl-2,10,11,12,13,15-hexahydro-8H-3,5-ethenotripyrazolo[3,4-f:3′,4′-j:4″,3″- n][1,4]oxazacyclopentadecine]
4 | 1210 | > 1000 | 173 | 90.8 | 182 | 24 | 12.6 | 21.6 | 0.29 | 0.19 | 230 | 0.61 | Cc1onc2c1/C=C/c1n[nH]c3ccc(cc13)-c1cnn(C)c1O[C@@H](C)CN(C)C2 [Example 134, (10S,17E)-8,10,12,16-tetramethyl-2,8,10,11,12,13-hexahydro-3,5-etheno[1,2]oxazolo[3,4-f]dipyrazolo[3,4-j:4′,3′-n][1,4]oxazacyclopentadecine]
5 | 2.43 | 28.9 | 0.47 | 0.63 | 2.22 | 0.44 | 0.37 | 2.04 | 2.02 | 1.28 | 115 | 5.39 | CCN1Cc2c(c(OC(C)C)nn2CCO)/C=C/c2n[nH]c3cc(F)c(cc23)-c2cnn(C)c2O[C@@H](C)C1 [Example 216, 2-{(10S,17E)-12-ethyl-19-fluoro-8,10-dimethyl-16-[(propan-2-yl)oxy]-2,8,10,11,12,13-hexahydro-14H-3,5-ethenotripyrazolo[3,4-f:3′,4′-j:4″,3″- n][1,4]oxazacyclopentadecin-14-yl}ethan-1-ol]
6 | 41.3 | 99.8 | 7.76 | 5.8 | 7.91 | 0.33 | 2.62 | 1.82 | 0.12 | 0.08 | 112 | 0.27 | Cc1nn(C)c2c1/C=C/c1n[nH]c3ccc(cc13)-c1cnn(C)c1O[C@@H](C)CN(C)C2 [Example 120, (10S,17E)-8,10,12,14,16-pentamethyl-2,10,11,12,13,14-hexahydro-8H-3,5-ethenotripyrazolo[3,4-f:3′,4′-j:4″,3″- n][1,4]oxazacyclopentadecine]
7 | 1.71 | 3.75 | 0.69 | 1.93 | 1.7 | 1.49 | 0.89 | 2.58 | 3.33 | 2.1 | 964 | 9.08 | CCOc1nn([C@@H](C)CO)c2c1/C=C/c1n[nH]c3cc(F)c(cc13)-c1cnn(C)c1O[C@@H](C)CN(CC)C2 [Example 215]
8 | 29.6 | 52 | 7.33 | 4.72 | 8.2 | 0.85 | 0.86 | 1.13 | 0.28 | 0.06 | 215 | 0.63 | C[C@H]1CN(C)Cc2c(c(OCC#N)nn2C)/C=C/c2n[nH]c3ccc(cc23)-c2cnn(C)c2O1 [Example 163, {[(10S,17E)-8,10,12,14-tetramethyl-2,10,11,12,13,14-hexahydro-8H-3,5-ethenotripyrazolo[3,4-f:3′,4′-j:4″,3″-n][1,4]oxazacyclopentadecin-16-yl]oxy}acetonitrile]
9 | 3.16 | 9.08 | 0.59 | 0.39 | 0.44 | 0.11 | 0.19 | 0.99 | 0.13 | 0.02 | 5.21 | 0.32 | CC(C)Oc1nn(CCO)c2c1/C=C/c1n[nH]c3ccc(cc13)-c1cnn(C)c1O[C@@H](C)CN(C)C2 [Example 147, 2-{(10S,17E)-8,10,12-trimethyl-16-[(propan-2-yl)oxy]-2,8,10,11,12,13-hexahydro-14H-3,5-ethenotripyrazolo[3,4-f:3′,4′-j:4″,3″-n][1,4]oxazacyclopentadecin-14-yl}ethan-1-ol]
10 | 6.46 | 59.9 | 4.08 | 1.93 | 2.01 | 1.41 | 0.69 | 1.49 | 0.48 | 1 | 194 | 1.53 | CC(C)Oc1nn([C@@H](C)CO)c2c1/C=C/c1n[nH]c3cc(F)c(cc13)-c1cnn(C)c1O[C@@H](C)CN(C)C2 [Example 200, (2S)-2-{(10S,17E)-19-fluoro-8,10,12-trimethyl-16-[(propan-2-yl)oxy]-2,8,10,11,12,13-hexahydro-14H-3,5-ethenotripyrazolo[3,4-f:3′,4′-j:4″,3″-n][1,4]oxazacyclopentadecin-14-yl}propan-1-ol]
11 | 12.5 | 84.4 | 2.23 | 1.68 | 1.8 | 1.29 | 2.5 | 1.05 | 0.87 | 0.68 | 56.2 | 2.6 | CC(C)Oc1nn(CCO)c2c1/C=C/c1n[nH]c3cc(F)c(cc13)-c1cnn(C)c1O[C@@H](C)CN(C)C2 [Example 181, 2-{(10S,17E)-19-fluoro-8,10,12-trimethyl-16-[(propan-2-yl)oxy]-2,8,10,11,12,13-hexahydro-14H-3,5-ethenotripyrazolo[3,4-f:3′,4′-j:4″,3″- n][1,4]oxazacyclopentadecin-14-yl}ethan-1-ol]
